Measured values reported in PubChem BioAssay (NCI).
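In this assay, cells in 96-well plates receive the compound at five concentrations for 48 hours. Endpoints are linearly interpolated between the surrounding concentrations. GI50: concentration for 50% inhibition of growth. TGI: concentration producing complete growth inhibition.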

Experiments:
Experiment in all cases: NCI tumour cell line growth inhibition, 48 h
CAKI-1 renal = system: CAKI-1 renal
NCI-H226 lung = system: NCI-H226 lung
SK-MEL-28 melanoma = system: SK-MEL-28 melanoma
LOX IMVI melanoma = system: LOX IMVI melanoma
SK-OV-3 ovarian = system: SK-OV-3 ovarian
OVCAR-4 ovarian = system: OVCAR-4 ovarian
HCT-15 colon = system: HCT-15 colon
A549 NSCLC = system: A549 NSCLC
HS 578T breast = system: HS 578T breast
MCF7 breast = system: MCF7 breast

Row | Structure (SMILES) | GI50 (CAKI-1 renal) [µM] | TGI (CAKI-1 renal) [µM] | GI50 (NCI-H226 lung) [µM] | TGI (NCI-H226 lung) [µM] | GI50 (SK-MEL-28 melanoma) [µM] | TGI (SK-MEL-28 melanoma) [µM] | GI50 (LOX IMVI melanoma) [µM] | TGI (LOX IMVI melanoma) [µM] | GI50 (SK-OV-3 ovarian) [µM] | TGI (SK-OV-3 ovarian) [µM] | GI50 (OVCAR-4 ovarian) [µM] | TGI (OVCAR-4 ovarian) [µM] | GI50 (HCT-15 colon) [µM] | TGI (HCT-15 colon) [µM] | GI50 (A549 NSCLC) [µM] | TGI (A549 NSCLC) [µM] | GI50 (HS 578T breast) [µM] | TGI (HS 578T breast) [µM] | GI50 (MCF7 breast) [µM] | TGI (MCF7 breast) [µM]
1 | [Cl-].[Dy+3].[O-]/N=C(\c1ccccc1)c1ccccn1.[O-]/N=C(\c1ccccc1)c1ccccn1.[O-]/N=C(\c1ccccc1)c1ccccn1 | 31 | > 100 | 17.3 | 58.4 | 27.6 | 90.8 | 21.9 | 54.1 | 33.9 | > 100 | 44.3 | > 100 | 37 | > 100 | 32.2 | > 100 | – | – | – | –
2 | CC(C)C(=O)NC(=S)Nc1ccc([N+](=O)[O-])cc1C#N | – | > 100 | – | > 100 | – | > 100 | – | > 100 | – | > 100 | – | > 100 | – | > 100 | – | > 100 | – | – | – | –
3 | O=C1CCC2(c3ccc(F)cc3)Nc3cc(Cl)ccc3N12 (stereo not drawn) | – | – | – | > 100 | – | > 100 | – | > 100 | – | > 100 | – | > 100 | – | > 100 | – | > 100 | – | – | – | –
4 | COc1ccc(-c2cnnc3c(-c4cccc(C(F)(F)F)c4)cnn23)cc1 | 3.3 | > 100 | 2.64 | > 100 | 3.14 | > 100 | > 100 | > 100 | 3.5 | > 100 | – | – | > 100 | > 100 | 4.19 | > 100 | 4.11 | > 100 | > 100 | > 100
5 | O/N=C/C1c2ccccc2-c2ccccc21 | – | 33.2 | – | 33.6 | – | 29.2 | – | 63.3 | – | 36.2 | – | – | – | 40.2 | – | 51.5 | – | 47.6 | – | 33.7
6 | COc1ccc(/C=C/CN(C)CCc2ccccc2)cc1OC | – | – | – | > 100 | – | > 100 | – | – | – | – | – | – | – | > 100 | – | > 100 | – | – | – | –
7 | O=C(O)CNS(=O)(=O)c1ccc(NCc2ccccc2)cc1 | – | > 100 | – | > 100 | – | > 100 | – | > 100 | – | > 100 | – | > 100 | – | > 100 | – | > 100 | – | – | – | –
8 | CSC(C1c2ccccc2N(c2ccc(C)cc2)C2=NC(=O)N(C)C(=O)C21Cl)S(=O)(=O)c1ccc(C)cc1 (stereo not drawn) | – | 43.2 | – | 48.7 | – | 45.1 | – | 40.3 | – | 87.6 | – | 34.6 | – | – | – | > 100 | – | – | – | –
9 | COC(=O)/C(=N/NC(=O)C[N+](C)(C)C)C(C(=O)OC)C(=O)C(=O)Nc1ccc(F)cc1 (stereo not drawn) | – | > 100 | – | > 100 | – | > 100 | – | > 100 | – | > 100 | – | > 100 | – | > 100 | – | > 100 | – | – | – | –
10 | CC1=CC(=Nc2ccc(N(CCCl)CCCl)cc2)C=C(C)C1=O | 0.116 | 1.08 | 1.2 | 4.83 | 2.48 | 10.1 | – | – | 3.21 | 23 | 1.56 | 4.76 | 1.63 | 11 | 1.61 | 24 | 2.08 | 7.73 | 0.413 | 3.98
